According to ChEMBL document CHEMBL1145498, “A systematic interaction map of validated kinase inhibitors with Ser/Thr kinases” (Proc Natl Acad Sci U S A, 2007):

Columns and labels:
[1] = biological target: Serine/threonine-protein kinase PLK1 (Homo sapiens) (UniProt P53350)
[2] = biological target: Serine/threonine-protein kinase 38 (Homo sapiens) (UniProt Q15208)
[3] = biological target: Calcium/calmodulin-dependent protein kinase type II subunit delta (Homo sapiens) (UniProt Q13557)
[4] = biological target: Cyclin-dependent kinase 6 (Homo sapiens) (UniProt Q00534)
Cyclin-dependent kinase 6 (Homo sapiens), sequence (Q00534 whole entry): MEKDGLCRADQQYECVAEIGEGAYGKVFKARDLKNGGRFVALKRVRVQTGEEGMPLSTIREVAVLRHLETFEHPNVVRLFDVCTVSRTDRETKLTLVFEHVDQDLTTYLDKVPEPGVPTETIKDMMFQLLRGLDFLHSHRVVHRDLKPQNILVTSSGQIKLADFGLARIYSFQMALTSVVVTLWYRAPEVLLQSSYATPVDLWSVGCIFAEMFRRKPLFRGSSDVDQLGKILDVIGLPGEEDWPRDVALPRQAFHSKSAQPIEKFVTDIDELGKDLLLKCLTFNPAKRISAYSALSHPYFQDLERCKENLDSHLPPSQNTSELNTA

[5] = biological target: Serine/threonine-protein kinase pim-2 (Homo sapiens, UniProt Q9P1W9)
Serine/threonine-protein kinase pim-2, sequence (Q9P1W9 whole entry, looked up): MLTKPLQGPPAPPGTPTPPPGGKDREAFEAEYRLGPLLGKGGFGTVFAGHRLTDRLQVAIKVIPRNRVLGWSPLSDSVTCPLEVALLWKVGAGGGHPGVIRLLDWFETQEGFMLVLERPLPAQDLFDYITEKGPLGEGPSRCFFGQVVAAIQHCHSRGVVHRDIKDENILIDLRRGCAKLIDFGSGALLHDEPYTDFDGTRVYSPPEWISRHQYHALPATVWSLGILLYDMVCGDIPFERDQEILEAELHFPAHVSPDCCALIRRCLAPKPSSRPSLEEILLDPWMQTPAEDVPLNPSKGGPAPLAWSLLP

[6] = biological target: T1, Lymphokine-activated killer T-cell-originated protein kinase (Homo sapiens) (UniProt Q96KB5)
T1 sequence (whole entry): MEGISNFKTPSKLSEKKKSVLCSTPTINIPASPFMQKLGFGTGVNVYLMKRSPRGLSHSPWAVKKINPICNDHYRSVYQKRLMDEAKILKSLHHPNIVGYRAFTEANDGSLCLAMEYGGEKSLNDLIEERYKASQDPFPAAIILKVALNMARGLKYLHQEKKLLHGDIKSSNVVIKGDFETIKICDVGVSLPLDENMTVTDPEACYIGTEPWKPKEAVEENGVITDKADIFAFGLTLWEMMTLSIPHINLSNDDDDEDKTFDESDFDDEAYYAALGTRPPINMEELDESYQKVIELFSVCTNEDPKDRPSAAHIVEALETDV

[7] = biological target: Tyrosine-protein kinase JAK1 (Homo sapiens) (UniProt P23458)
Tyrosine-protein kinase JAK1 (Homo sapiens), sequence (P23458 whole entry): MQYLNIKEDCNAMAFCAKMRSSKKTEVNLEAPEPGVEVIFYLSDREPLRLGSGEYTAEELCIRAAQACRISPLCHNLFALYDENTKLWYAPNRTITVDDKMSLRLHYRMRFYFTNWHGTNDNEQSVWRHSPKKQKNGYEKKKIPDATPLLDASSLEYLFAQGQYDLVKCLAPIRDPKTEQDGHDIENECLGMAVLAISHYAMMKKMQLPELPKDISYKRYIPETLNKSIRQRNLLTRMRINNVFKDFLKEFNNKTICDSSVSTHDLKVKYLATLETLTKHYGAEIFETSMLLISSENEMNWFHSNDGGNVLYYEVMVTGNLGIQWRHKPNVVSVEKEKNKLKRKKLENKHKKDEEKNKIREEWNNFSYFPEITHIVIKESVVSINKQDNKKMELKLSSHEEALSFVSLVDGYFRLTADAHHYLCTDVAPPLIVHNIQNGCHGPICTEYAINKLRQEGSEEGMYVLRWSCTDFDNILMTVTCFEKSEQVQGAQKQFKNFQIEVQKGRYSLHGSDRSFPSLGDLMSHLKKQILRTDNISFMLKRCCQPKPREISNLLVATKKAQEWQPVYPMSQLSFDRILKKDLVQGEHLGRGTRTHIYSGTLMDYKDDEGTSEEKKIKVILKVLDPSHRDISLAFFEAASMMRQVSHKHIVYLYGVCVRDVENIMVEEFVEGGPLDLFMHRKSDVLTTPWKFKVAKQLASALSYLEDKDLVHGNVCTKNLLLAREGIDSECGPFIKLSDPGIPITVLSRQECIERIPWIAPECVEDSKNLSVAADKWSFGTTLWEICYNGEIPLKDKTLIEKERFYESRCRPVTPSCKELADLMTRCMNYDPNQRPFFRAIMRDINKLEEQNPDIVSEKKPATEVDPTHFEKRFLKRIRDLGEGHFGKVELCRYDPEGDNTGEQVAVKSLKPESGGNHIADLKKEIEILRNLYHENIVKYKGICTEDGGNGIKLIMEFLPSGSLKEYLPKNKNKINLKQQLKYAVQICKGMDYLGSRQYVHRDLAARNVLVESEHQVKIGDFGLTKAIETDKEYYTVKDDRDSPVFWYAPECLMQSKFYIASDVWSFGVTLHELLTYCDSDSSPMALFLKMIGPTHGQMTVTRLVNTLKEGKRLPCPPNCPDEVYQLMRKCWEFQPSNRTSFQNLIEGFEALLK

[8] = biological target: Calcium/calmodulin-dependent protein kinase type 1D (Homo sapiens) (UniProt Q8IU85)
[9] = biological target: Glycogen synthase kinase-3 beta (Homo sapiens, UniProt P49841)
Glycogen synthase kinase-3 beta, sequence (P49841 whole entry, looked up): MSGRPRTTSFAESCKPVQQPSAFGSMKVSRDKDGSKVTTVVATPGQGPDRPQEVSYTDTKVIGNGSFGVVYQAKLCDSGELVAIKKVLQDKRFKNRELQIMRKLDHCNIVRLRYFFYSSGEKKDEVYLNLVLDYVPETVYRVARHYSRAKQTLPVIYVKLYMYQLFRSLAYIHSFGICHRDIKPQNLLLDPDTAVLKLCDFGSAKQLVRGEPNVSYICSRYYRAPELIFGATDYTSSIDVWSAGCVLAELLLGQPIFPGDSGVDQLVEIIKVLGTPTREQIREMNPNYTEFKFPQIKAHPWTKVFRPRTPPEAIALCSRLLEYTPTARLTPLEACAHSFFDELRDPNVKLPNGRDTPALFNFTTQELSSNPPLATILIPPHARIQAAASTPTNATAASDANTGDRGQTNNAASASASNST

[10] = biological target: Serine/threonine-protein kinase pim-1 (Homo sapiens) (UniProt P11309)
[11] = biological target: Serine/threonine-protein kinase 26 (Homo sapiens) (UniProt Q9P289)
[12] = biological target: Dual specificity mitogen-activated protein kinase kinase 2 (Homo sapiens, UniProt P36507)
Dual specificity mitogen-activated protein kinase kinase 2, sequence (P36507 whole entry): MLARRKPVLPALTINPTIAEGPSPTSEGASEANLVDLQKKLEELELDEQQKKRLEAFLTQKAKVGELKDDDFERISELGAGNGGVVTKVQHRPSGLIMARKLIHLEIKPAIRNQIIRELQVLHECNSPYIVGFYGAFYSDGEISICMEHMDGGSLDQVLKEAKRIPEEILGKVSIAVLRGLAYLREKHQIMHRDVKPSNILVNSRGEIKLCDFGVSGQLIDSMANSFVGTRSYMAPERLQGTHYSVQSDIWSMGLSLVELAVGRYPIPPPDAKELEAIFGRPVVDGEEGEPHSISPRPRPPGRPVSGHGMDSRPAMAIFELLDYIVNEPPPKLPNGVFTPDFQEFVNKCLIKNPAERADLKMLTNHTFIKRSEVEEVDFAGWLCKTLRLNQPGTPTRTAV

[13] = biological target: Calcium/calmodulin-dependent protein kinase type II subunit alpha (Homo sapiens) (UniProt Q9UQM7)
[14] = biological target: Dual specificity protein kinase CLK2 (Homo sapiens) (UniProt P49760)
[15] = biological target: Dual specificity protein kinase CLK3 (Homo sapiens) (UniProt P49761)
[16] = biological target: Casein kinase I isoform gamma-1 (Homo sapiens) (UniProt Q9HCP0)
Casein kinase I isoform gamma-1 (Homo sapiens), sequence (Q9HCP0 whole entry, looked up, canonical isoform): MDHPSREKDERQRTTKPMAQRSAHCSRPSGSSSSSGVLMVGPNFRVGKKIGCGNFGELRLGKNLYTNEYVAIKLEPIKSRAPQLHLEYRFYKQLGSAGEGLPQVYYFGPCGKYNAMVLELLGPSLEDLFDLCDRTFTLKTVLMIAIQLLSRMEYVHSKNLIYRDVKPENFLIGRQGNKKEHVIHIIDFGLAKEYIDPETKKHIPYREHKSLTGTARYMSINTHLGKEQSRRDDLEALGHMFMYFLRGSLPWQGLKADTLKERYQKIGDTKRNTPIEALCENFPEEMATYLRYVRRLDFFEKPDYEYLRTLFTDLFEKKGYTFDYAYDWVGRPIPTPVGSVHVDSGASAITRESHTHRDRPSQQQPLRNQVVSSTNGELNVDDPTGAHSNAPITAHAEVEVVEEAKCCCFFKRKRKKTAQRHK

[17] = biological target: T2, Myotonin-protein kinase (Homo sapiens) (UniProt Q09013)
T2 sequence (whole entry): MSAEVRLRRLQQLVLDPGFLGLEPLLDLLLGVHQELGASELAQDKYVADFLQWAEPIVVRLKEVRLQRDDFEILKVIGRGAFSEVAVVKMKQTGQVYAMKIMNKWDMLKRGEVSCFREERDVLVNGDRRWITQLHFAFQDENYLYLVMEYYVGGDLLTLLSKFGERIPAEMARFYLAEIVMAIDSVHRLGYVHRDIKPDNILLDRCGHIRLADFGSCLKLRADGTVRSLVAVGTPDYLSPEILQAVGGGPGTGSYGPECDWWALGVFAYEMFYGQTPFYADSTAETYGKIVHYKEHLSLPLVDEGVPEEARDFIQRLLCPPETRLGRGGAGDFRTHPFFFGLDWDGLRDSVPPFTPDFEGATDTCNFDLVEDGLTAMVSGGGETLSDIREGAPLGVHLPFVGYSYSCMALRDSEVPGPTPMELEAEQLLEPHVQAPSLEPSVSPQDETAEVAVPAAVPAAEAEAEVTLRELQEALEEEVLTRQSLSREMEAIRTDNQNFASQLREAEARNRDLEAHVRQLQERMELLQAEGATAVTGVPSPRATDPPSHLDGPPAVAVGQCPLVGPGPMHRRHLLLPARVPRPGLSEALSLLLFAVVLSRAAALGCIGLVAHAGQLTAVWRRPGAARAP

[18] = biological target: Ribosomal protein S6 kinase alpha-3 (Homo sapiens) (UniProt P51812)
Ribosomal protein S6 kinase alpha-3 (Homo sapiens), sequence (P51812 whole entry): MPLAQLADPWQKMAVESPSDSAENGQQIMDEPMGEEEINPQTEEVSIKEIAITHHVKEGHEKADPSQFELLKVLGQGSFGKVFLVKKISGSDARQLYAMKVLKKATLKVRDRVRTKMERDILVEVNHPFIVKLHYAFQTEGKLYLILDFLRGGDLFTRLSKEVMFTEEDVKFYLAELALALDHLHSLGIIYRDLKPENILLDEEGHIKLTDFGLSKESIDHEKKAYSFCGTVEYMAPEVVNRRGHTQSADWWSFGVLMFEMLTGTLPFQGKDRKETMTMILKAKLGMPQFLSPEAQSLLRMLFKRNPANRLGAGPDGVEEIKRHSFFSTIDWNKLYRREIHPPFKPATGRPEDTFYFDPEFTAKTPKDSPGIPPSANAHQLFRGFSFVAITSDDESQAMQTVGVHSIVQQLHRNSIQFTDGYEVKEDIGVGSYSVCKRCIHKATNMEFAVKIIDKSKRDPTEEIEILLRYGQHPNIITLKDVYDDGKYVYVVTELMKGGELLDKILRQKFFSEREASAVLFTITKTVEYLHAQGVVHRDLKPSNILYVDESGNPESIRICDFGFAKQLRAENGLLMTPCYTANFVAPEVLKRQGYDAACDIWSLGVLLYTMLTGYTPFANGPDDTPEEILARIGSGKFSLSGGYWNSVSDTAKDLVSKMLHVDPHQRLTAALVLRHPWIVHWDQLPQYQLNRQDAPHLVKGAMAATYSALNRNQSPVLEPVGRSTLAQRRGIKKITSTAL

[19] = biological target: Cyclin-dependent kinase 16 (Homo sapiens) (UniProt Q00536)
[20] = biological target: T3, Serine/threonine-protein kinase Nek2 (Homo sapiens) (UniProt P51955)
T3 sequence (whole entry): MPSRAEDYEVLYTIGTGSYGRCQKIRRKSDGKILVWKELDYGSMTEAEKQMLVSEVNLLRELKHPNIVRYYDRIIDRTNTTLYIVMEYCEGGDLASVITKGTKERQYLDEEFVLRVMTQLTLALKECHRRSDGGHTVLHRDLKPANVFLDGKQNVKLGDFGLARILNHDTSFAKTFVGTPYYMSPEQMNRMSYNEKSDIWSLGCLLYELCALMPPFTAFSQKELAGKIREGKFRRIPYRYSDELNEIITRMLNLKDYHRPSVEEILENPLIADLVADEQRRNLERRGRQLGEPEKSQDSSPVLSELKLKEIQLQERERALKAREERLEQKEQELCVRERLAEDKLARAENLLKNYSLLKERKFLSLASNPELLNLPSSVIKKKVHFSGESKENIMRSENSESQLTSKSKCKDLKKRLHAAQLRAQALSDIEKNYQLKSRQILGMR

[21] = biological target: STE20-like serine/threonine-protein kinase (Homo sapiens) (UniProt Q9H2G2)
[22] = biological target: Calcium/calmodulin-dependent protein kinase type 1G (Homo sapiens) (UniProt Q96NX5)
[23] = biological target: Casein kinase I isoform gamma-2 (Homo sapiens) (UniProt P78368)
Casein kinase I isoform gamma-2 (Homo sapiens), sequence (P78368 whole entry, looked up, canonical isoform): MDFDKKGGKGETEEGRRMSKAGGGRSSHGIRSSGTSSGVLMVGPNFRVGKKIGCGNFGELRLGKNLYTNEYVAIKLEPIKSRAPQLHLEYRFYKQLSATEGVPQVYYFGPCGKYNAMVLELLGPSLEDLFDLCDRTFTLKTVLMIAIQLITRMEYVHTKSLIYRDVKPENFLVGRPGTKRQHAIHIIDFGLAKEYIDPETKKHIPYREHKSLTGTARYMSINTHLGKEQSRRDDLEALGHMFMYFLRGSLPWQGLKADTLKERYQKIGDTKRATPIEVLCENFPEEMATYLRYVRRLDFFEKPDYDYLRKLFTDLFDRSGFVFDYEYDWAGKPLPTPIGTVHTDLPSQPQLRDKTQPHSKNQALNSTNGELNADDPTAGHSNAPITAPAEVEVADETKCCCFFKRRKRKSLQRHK

[24] = biological target: Serine/threonine-protein kinase Chk2 (Homo sapiens, UniProt O96017)
[25] = biological target: Calcium/calmodulin-dependent protein kinase kinase 2 (Homo sapiens, UniProt Q96RR4)
Calcium/calmodulin-dependent protein kinase kinase 2, sequence (Q96RR4 2-588 limits assumed): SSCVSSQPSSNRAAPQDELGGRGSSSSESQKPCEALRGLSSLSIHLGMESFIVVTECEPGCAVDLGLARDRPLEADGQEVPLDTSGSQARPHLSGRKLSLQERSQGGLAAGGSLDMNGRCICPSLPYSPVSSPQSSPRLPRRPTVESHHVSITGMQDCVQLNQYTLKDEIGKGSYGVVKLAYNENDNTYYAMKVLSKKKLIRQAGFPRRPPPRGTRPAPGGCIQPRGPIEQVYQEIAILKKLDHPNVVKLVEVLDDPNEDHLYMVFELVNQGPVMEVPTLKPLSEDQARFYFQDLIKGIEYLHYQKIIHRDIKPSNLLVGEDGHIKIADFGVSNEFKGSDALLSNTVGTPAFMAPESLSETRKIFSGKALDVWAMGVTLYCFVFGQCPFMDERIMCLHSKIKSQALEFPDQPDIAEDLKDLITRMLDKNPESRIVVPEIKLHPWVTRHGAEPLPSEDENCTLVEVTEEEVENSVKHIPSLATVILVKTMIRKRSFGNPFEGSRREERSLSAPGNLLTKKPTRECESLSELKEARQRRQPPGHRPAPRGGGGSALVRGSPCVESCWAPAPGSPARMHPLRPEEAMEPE

[26] = biological target: Dual specificity protein kinase CLK1 (Homo sapiens) (UniProt P49759)

SMILES | ΔTm [1] | ΔTm [2] | ΔTm [3] | ΔTm [4] | ΔTm [5] | ΔTm [6] | ΔTm [7] | ΔTm [8] | ΔTm [9] | ΔTm [10] | ΔTm [11] | ΔTm [12] | ΔTm [13] | ΔTm [14] | ΔTm [15] | ΔTm [16] | ΔTm [18] | ΔTm [19] | ΔTm [20] | ΔTm [21] | also measured
C[C@@H]1C[C@H]2O[C@@H]2/C=C\C=C\C(=O)Cc2c(Cl)c(O)cc(O)c2C(=O)O1 [RADICICOL] | 0.2 °C | 0.3 °C | -0.4 °C | -0.5 °C | 0.1 °C | 0.2 °C | -0.2 °C | 0 °C | -0.3 °C | -0.1 °C | 0.9 °C | 0 °C | 0 °C | 0.1 °C | 0 °C | 0.3 °C | 0.9 °C | 0.2 °C | 0.2 °C | 0.4 °C | ΔTm [17]: -0.9 °C; ΔTm [22]: 0.6 °C; ΔTm [23]: 0 °C; ΔTm [24]: 1.6 °C; ΔTm [25]: -0.1 °C; ΔTm [26]: 0 °C
COc1cc2c(cc1OC)-c1n[nH]c(Nc3cccc(F)c3)c1C2 | -0.2 °C | 2.4 °C | 1.2 °C | 1.7 °C | 0.2 °C | 0.2 °C | 0.4 °C | 0.3 °C | 2.9 °C | 0.5 °C | -0.2 °C | 0.7 °C | 0.3 °C | 1.1 °C | 0.4 °C | 0.7 °C | 2.8 °C | -0.3 °C | 0.6 °C | 2.1 °C | ΔTm [17]: 2.4 °C; ΔTm [22]: 1.6 °C; ΔTm [23]: 0.3 °C; ΔTm [24]: -0.1 °C; ΔTm [25]: 1.6 °C; ΔTm [26]: 0.1 °C
NC(=O)c1ccc2[nH]c(-c3ccc(Oc4ccc(Cl)cc4)cc3)nc2c1 | 4.4 °C | 1.7 °C | 1.5 °C | 0.6 °C | 1 °C | 0.9 °C | 1.7 °C | 1.1 °C | 1 °C | 0.4 °C | 1.3 °C | -1.2 °C | 0.1 °C | -0.4 °C | 0.5 °C | 1.7 °C | 1 °C | -1.4 °C | 1.4 °C | 0 °C | ΔTm [17]: 1.3 °C; ΔTm [22]: 2.6 °C; ΔTm [23]: 1.6 °C; ΔTm [25]: 2.4 °C; ΔTm [26]: 1.2 °C
COc1nccc(-c2c(-c3ccc(F)cc3)ncn2[C@H]2CC[C@H](O)CC2)n1 | -0.2 °C | 0.4 °C | 0.4 °C | 0.1 °C | 0.5 °C | 0.7 °C | 0.8 °C | -0.1 °C | 0.4 °C | -0.5 °C | 2.8 °C | 0.2 °C | 1.5 °C | 0.8 °C | 0.1 °C | 0.9 °C | 0.2 °C | 0.6 °C | 1 °C | 1.9 °C | ΔTm [22]: 0.2 °C; ΔTm [23]: 1 °C; ΔTm [24]: 1.2 °C; ΔTm [25]: -0.6 °C; ΔTm [26]: 1.7 °C
O=C1Nc2ccccc2/C1=C/c1cnc[nH]1 | 1.3 °C | 2.9 °C | -0.3 °C | 4.4 °C | 1.9 °C | 0.1 °C | 6.9 °C | 0.7 °C | 7.1 °C | 3 °C | 4.5 °C | 2 °C | 0.7 °C | 2.5 °C | 1 °C | 1.2 °C | 1 °C | 4.7 °C | 2 °C | 3.3 °C | ΔTm [17]: 0.8 °C; ΔTm [22]: 1.2 °C; ΔTm [23]: 1.6 °C; ΔTm [24]: 3 °C; ΔTm [25]: 3.1 °C; ΔTm [26]: 3.3 °C
COc1cc(O)c2c(c1)oc(=O)c1c3cc(O)c(O)cc3oc21 [WEDELOLACTONE] | 1.4 °C | 0.5 °C | 0.5 °C | 0.6 °C | 2.2 °C | 0 °C | 2.2 °C | 1.1 °C | -0.4 °C | 3.4 °C | 3.2 °C | 0.1 °C | 1.2 °C | 1.2 °C | 2.1 °C | 1 °C | 1 °C | 0.1 °C | 2 °C | 1.3 °C | ΔTm [17]: 2.7 °C; ΔTm [22]: 0.1 °C; ΔTm [23]: 2.7 °C; ΔTm [24]: 1.8 °C; ΔTm [25]: 2.3 °C; ΔTm [26]: 2.6 °C
O=C1Nc2ccc(S(=O)(=O)O)cc2/C1=C1/Nc2ccccc2/C1=N\O | 1.1 °C | 1.9 °C | 1.2 °C | 2.9 °C | 3.5 °C | 0.4 °C | 4.3 °C | 0.7 °C | 8.8 °C | 3.3 °C | 0.5 °C | 4.9 °C | 4.8 °C | 3.7 °C | 3.5 °C | 4 °C | 6.1 °C | 5.9 °C | 3.5 °C | 1.1 °C | ΔTm [17]: 1.8 °C; ΔTm [22]: 2 °C; ΔTm [23]: 2.5 °C; ΔTm [24]: 4.5 °C; ΔTm [25]: 4.9 °C; ΔTm [26]: 3.9 °C
O=S(=O)(c1cccc2c(Cl)cccc12)N1CCCNCC1 | 0 °C | 0.3 °C | 0.5 °C | 0.9 °C | 1.7 °C | 0 °C | 0 °C | 0 °C | 0.2 °C | 2.7 °C | -0.1 °C | -0.3 °C | 0.5 °C | 0.6 °C | -0.2 °C | 0.2 °C | -0.2 °C | -0.4 °C | 0.9 °C | -0.1 °C | ΔTm [17]: -0.2 °C; ΔTm [22]: -0.1 °C; ΔTm [23]: 0.3 °C; ΔTm [24]: -0.1 °C; ΔTm [25]: -0.8 °C; ΔTm [26]: 2 °C
